Here are results for 1 molecule from patent US9434993B2, “Systems for identifying cosmetic agents for skin care compositions” (The Procter & Gamble Company, priority 2011, dated 2016).

The structures appear in SMILES notation. “Also recorded” adds a separate entry of the source.

Assay [1] concerns Telomerized-keratinocytes. In words: Microscopic evaluation of cell morphology, telomerized keratinocytes. It is filed as cell-based, human. Particulars: 10 μM in DMSO for 6 hr; vs 0.1% DMSO vehicle control. As to the method: (§1) All cells were incubated at 37° C. in a humidified incubator with 5% CO2. At t=−24 hours cells were trypsinized from T-75 flasks and plated into 6-well plates in basal growth medium. At t=0 media was removed and replaced with the appropriate dosing solution as per the experimental design. Dosing solutions were prepared the previous day in sterile 4 ml Falcon snap cap tubes. Pure test materials may be prepared at a concentration of 1-200 μM, and botanical extracts may be prepared at a concentration of 0.001 to 1% by weight of the dosing solution. After 6 to 24 hours of chemical exposure, cells were viewed and imaged. The wells were examined with a microscope before cell lysis and RNA isolation to evaluate for morphologic evidence of toxicity. […] Cells were then lysed with 350 ul/well of RLT buffer containing β-mercaptoethanol (Qiagen, Valencia, Calif.), transferred to a 96-well plate, and stored at −20° C.

For assay [2], the system named is BJ fibroblasts. In words: Microscopic evaluation of cell morphology, BJ fibroblasts. In kind it is cell-based, human. Particulars: 10 μM in DMSO for 6 hr; vs 0.1% DMSO vehicle control. As for the experimental part:
as §1

For the molecule `CC1=C(/C=C/C(C)=C/C=C/C(C)=C/C(=O)O)C(C)(C)CCC1` [tRA, all-trans-retinoic acid], in assay [1], the “morphology of treated keratinocytes” value is “marked morphologic changes; also recorded: dramatic morphologic changes”. The “morphology of treated fibroblasts” value in assay [2] is listed as “no apparent morphologic effect”.
